# Values joined by “and” are separate entries in the source; they are usually repeats but may differ in a detail not shown here. Equal values may be shown once.
# Test system: NCI-H196 complex spheroid growth, percent test/control
# Assay: Anticancer human tumor NCI-H196 cell line growth inhibition [AhR];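 further: seven days of drug exposure starting three days after plating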;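 on viability, T/C: 100% = DMSO vehicle control wells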
# Conditions: for viability, T/C: stronger effect = lower value
# How it was run: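 Spheroids combined tumor cells with HUVEC endothelial cells and human MSCs as stroma. AhR antagonists were paired with standard or investigational drugs, each dosed in half-log steps down from near clinical Cmax, or from 10 microM where Cmax was unknown.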
# [1] = curve of first compound, second compound 0.1 µM
# [2] = curve of first compound, second compound 0.316 µM
# [3] = curve of first compound, second compound 1 µM
# [4] = curve of first compound, second compound 3.16 µM
# [5] = curve of first compound, second compound 10 µM
# [6] = second compound 0.1 µM, first compound 0.0316 µM
# [7] = second compound 0.1 µM, first compound 0.1 µM
# [8] = second compound 0.1 µM, first compound 0.316 µM
# [9] = second compound 0.1 µM, first compound 1 µM
# [10] = second compound 0.316 µM, first compound 0.0316 µM
# [11] = second compound 0.316 µM, first compound 0.1 µM
# [12] = second compound 0.316 µM, first compound 0.316 µM
# [13] = second compound 0.316 µM, first compound 1 µM
# [14] = second compound 1 µM, first compound 0.0316 µM
# [15] = second compound 1 µM, first compound 0.1 µM
# [16] = second compound 1 µM, first compound 0.316 µM
# [17] = second compound 1 µM, first compound 1 µM
# [18] = second compound 3.16 µM, first compound 0.0316 µM
# [19] = second compound 3.16 µM, first compound 0.1 µM
# [20] = second compound 3.16 µM, first compound 0.316 µM
# [21] = second compound 3.16 µM, first compound 1 µM
# [22] = second compound 10 µM, first compound 0.0316 µM
# [23] = second compound 10 µM, first compound 0.1 µM
# [24] = second compound 10 µM, first compound 0.316 µM
# [25] = second compound 10 µM, first compound 1 µM
# [26] = second compound 0.1 µM, first compound 3.16 µM
# [27] = second compound 0.1 µM, first compound 10 µM
# [28] = second compound 0.316 µM, first compound 3.16 µM
# [29] = second compound 0.316 µM, first compound 10 µM
# [30] = second compound 1 µM, first compound 3.16 µM
# [31] = second compound 1 µM, first compound 10 µM
# [32] = second compound 3.16 µM, first compound 3.16 µM
# [33] = second compound 3.16 µM, first compound 10 µM
# [34] = second compound 10 µM, first compound 3.16 µM
# [35] = second compound 10 µM, first compound 10 µM
structure (smiles),measurement,setting,value
CC1COCCN1c1cc(-c2ccnn2C)c2ccnc(-c3ccn[nH]3)c2n1 (stereo unspecified) + Cc1ccccc1N=Nc1ccc(NC(=O)c2ccnn2C)c(C)c1,IC50,[1],> 1 µM
same,IC50,[2],> 1 µM
same,IC50,[3],> 1 µM
same,IC50,[4],> 1 µM
same,IC50,[5],> 1 µM
same,"viability, T/C","second compound 0.1 µM, first compound 0.00316 µM",96.4%
same,"viability, T/C","second compound 0.1 µM, first compound 0.01 µM",90.9%
same,"viability, T/C",[6],86%
same,"viability, T/C",[7],66%
same,"viability, T/C",[8],58.3%
same,"viability, T/C",[9],53%
same,"viability, T/C","second compound 0.316 µM, first compound 0.00316 µM",98.9%
same,"viability, T/C","second compound 0.316 µM, first compound 0.01 µM",96.1%
same,"viability, T/C",[10],87.5%
same,"viability, T/C",[11],71.3%
same,"viability, T/C",[12],52.2%
same,"viability, T/C",[13],52.7%
same,"viability, T/C","second compound 1 µM, first compound 0.00316 µM",85.2%
same,"viability, T/C","second compound 1 µM, first compound 0.01 µM",94.5%
same,"viability, T/C",[14],85.5%
same,"viability, T/C",[15],71.1%
same,"viability, T/C",[16],56%
same,"viability, T/C",[17],52.1%
same,"viability, T/C","second compound 3.16 µM, first compound 0.00316 µM",89.2%
same,"viability, T/C","second compound 3.16 µM, first compound 0.01 µM",94.2%
same,"viability, T/C",[18],91.5%
same,"viability, T/C",[19],70.5%
same,"viability, T/C",[20],56.6%
same,"viability, T/C",[21],49.9%
same,"viability, T/C","second compound 10 µM, first compound 0.00316 µM",96.8%
same,"viability, T/C","second compound 10 µM, first compound 0.01 µM",88.9%
same,"viability, T/C",[22],77.9%
same,"viability, T/C",[23],74.6%
same,"viability, T/C",[24],63.4%
same,"viability, T/C",[25],52.8%
NS(=O)(=O)OCC1CC(n2ccc3c(NC4CCc5ccccc54)ncnc32)CC1O (stereo unspecified),"viability, T/C",compound 0.0316 µM,78.8% and 89.8% and 79.4%
same,"viability, T/C",compound 0.1 µM,71.8% and 85.1% and 80.3%
same,"viability, T/C",compound 0.316 µM,92% and 82% and 79.9%
same,"viability, T/C",compound 1 µM,52.6% and 59.9% and 65.8%
same,"viability, T/C",compound 3.16 µM,74.1% and 65.6% and 55.6%
same,"viability, T/C",compound 10 µM,69.5% and 70.9% and 55.7%
same,IC50,curve of compound,> 10 µM
O=C(c1cc(Cc2n[nH]c(=O)c3ccccc23)ccc1F)N1CCN(C(=O)C2CC2)CC1 + CC(CO)NC(=O)c1cc(-c2ccc(Cl)cc2)nn(-c2cnn(C)c2)c1=O,IC50,[1],> 10 µM
same,IC50,[2],> 10 µM
same,IC50,[3],> 10 µM
same,IC50,[4],> 10 µM
same,IC50,[5],> 10 µM
same,"viability, T/C",[6],109%
same,"viability, T/C",[7],114%
same,"viability, T/C",[8],99.8%
same,"viability, T/C",[9],93.3%
same,"viability, T/C",[26],106%
same,"viability, T/C",[27],96.3%
same,"viability, T/C",[10],103%
same,"viability, T/C",[11],109%
same,"viability, T/C",[12],103%
same,"viability, T/C",[13],102%
same,"viability, T/C",[28],105%
same,"viability, T/C",[29],96.8%
same,"viability, T/C",[14],105%
same,"viability, T/C",[15],102%
same,"viability, T/C",[16],99.7%
same,"viability, T/C",[17],102%
same,"viability, T/C",[30],102%
same,"viability, T/C",[31],98.7%
same,"viability, T/C",[18],101%
same,"viability, T/C",[19],103%
same,"viability, T/C",[20],107%
same,"viability, T/C",[21],98.9%
same,"viability, T/C",[32],109%
same,"viability, T/C",[33],94.9%
same,"viability, T/C",[22],113%
same,"viability, T/C",[23],103%
same,"viability, T/C",[24],109%
same,"viability, T/C",[25],109%
same,"viability, T/C",[34],109%
same,"viability, T/C",[35],102%
COc1cc(C2c3cc4c(cc3C(OC3OC5COC(C)OC5C(O)C3O)C3COC(=O)C23)OCO4)cc(OC)c1O (stereo unspecified) + Cc1ccccc1N=Nc1ccc(NC(=O)c2ccnn2C)c(C)c1,IC50,[1],> 10 µM
same,IC50,[2],> 10 µM
same,IC50,[3],> 10 µM
same,IC50,[4],> 10 µM
same,IC50,[5],> 10 µM
same,"viability, T/C",[6],97.3%
same,"viability, T/C",[7],93.5%
same,"viability, T/C",[8],87.4%
same,"viability, T/C",[9],86.2%
same,"viability, T/C",[26],87.9%
same,"viability, T/C",[27],76.8%
same,"viability, T/C",[10],92.1%
same,"viability, T/C",[11],95%
same,"viability, T/C",[12],96.8%
same,"viability, T/C",[13],89.8%
same,"viability, T/C",[28],91.2%
same,"viability, T/C",[29],75.6%
same,"viability, T/C",[14],93.5%
same,"viability, T/C",[15],94.6%
same,"viability, T/C",[16],93.5%
same,"viability, T/C",[17],92.1%
same,"viability, T/C",[30],100%
same,"viability, T/C",[31],74.3%
same,"viability, T/C",[18],89%
same,"viability, T/C",[19],94.7%
same,"viability, T/C",[20],91.4%
same,"viability, T/C",[21],79.5%
same,"viability, T/C",[32],87.1%
same,"viability, T/C",[33],75.3%
same,"viability, T/C",[22],85.7%
same,"viability, T/C",[23],84.3%
same,"viability, T/C",[24],89.3%
same,"viability, T/C",[25],93%
same,"viability, T/C",[34],88%
same,"viability, T/C",[35],78.9%
COc1cc(Nc2ncc3c(n2)-c2ccc(Cl)cc2C(c2c(F)cccc2OC)=NC3)ccc1C(=O)O,"viability, T/C",compound 0.0316 µM,91.6% and 84.6% and 104%
same,"viability, T/C",compound 0.1 µM,92.1% and 90.5% and 106%
same,"viability, T/C",compound 0.316 µM,109% and 92.9% and 107%
same,"viability, T/C",compound 1 µM,117% and 90.2% and 116%
same,"viability, T/C",compound 3.16 µM,114% and 120% and 121%
same,"viability, T/C",compound 10 µM,125% and 108% and 132%
same,IC50,curve of compound,> 10 µM
NS(=O)(=O)OCC1CC(n2ccc3c(NC4CCc5ccccc54)ncnc32)CC1O (stereo unspecified) + Cc1cncc(-c2nc(NCCc3c[nH]c4ccccc34)c3ncn(C(C)C)c3n2)c1,IC50,[1],> 10 µM
same,IC50,[2],> 10 µM
same,IC50,[3],> 10 µM
same,IC50,[4],> 10 µM
same,IC50,[5],> 10 µM
same,"viability, T/C",[6],73.7%
same,"viability, T/C",[7],65.6%
same,"viability, T/C",[8],57.3%
same,"viability, T/C",[9],48.6%
same,"viability, T/C",[26],77%
same,"viability, T/C",[27],68.2%
same,"viability, T/C",[10],80%
same,"viability, T/C",[11],63.3%
same,"viability, T/C",[12],56.3%
same,"viability, T/C",[13],55.6%
same,"viability, T/C",[28],58.1%
same,"viability, T/C",[29],64.9%
same,"viability, T/C",[14],74.3%
same,"viability, T/C",[15],66.7%
same,"viability, T/C",[16],60.6%
same,"viability, T/C",[17],49.3%
same,"viability, T/C",[30],72%
same,"viability, T/C",[31],59.3%
same,"viability, T/C",[18],81.8%
same,"viability, T/C",[19],81.8%
same,"viability, T/C",[20],66.8%
same,"viability, T/C",[21],53.8%
same,"viability, T/C",[32],60.7%
same,"viability, T/C",[33],66.2%
same,"viability, T/C",[22],102%
same,"viability, T/C",[23],91.7%
same,"viability, T/C",[24],96.4%
same,"viability, T/C",[25],79.6%
same,"viability, T/C",[34],74.8%
same,"viability, T/C",[35],61.6%
COc1cc(C2c3cc4c(cc3C(OC3OC5COC(C)OC5C(O)C3O)C3COC(=O)C23)OCO4)cc(OC)c1O (stereo unspecified),"viability, T/C",compound 0.0316 µM,114% and 96.5% and 94.6%
same,"viability, T/C",compound 0.1 µM,103% and 110% and 111%
same,"viability, T/C",compound 0.316 µM,122% and 107% and 91.5%
same,"viability, T/C",compound 1 µM,94.3% and 121% and 94.5%
same,"viability, T/C",compound 3.16 µM,93.5% and 114% and 91.3%
same,"viability, T/C",compound 10 µM,90.1% and 89.2% and 76.2%
same,IC50,curve of compound,> 10 µM

# Reference: PubChem BioAssay AID1919016 (Molecular Pharmacology Branch, DTP, NCI, 2023)
